Measurements as given in patent US11046688B2, “Inhibitor compounds” (Cancer Research Technology Limited, priority 2012, dated 2021).
pIC50: −log10 of the molar value.

These compounds were tested against full length MPS1 (Homo sapiens (Human), UniProt P33981) (assay: Measurement of Inhibition of MPS1 Kinase (Caliper EZ reader, fluorescent labelled peptide H236)). Settings: full length MPS1 12.5 nM or 3 nM, H236 peptide 5 μM, ATP 10 μM, 60 min at room temperature.
Format: biochemical
Method: The reaction was carried out for 60 min at room temperature and stopped by the addition of buffer (10 μl) containing 20 mM EDTA, 0.05% (v/v) Brij-35, in 0.1M HEPES-buffered saline (Free acid, Sigma. UK). The plate was read on a Caliper EZ reader II (Caliper Life Sciences).
The % inhibition of the compounds is calculated relative to the means of selected control wells. […] The % inhibitions at each concentration are then fitted to a 4 parameter logistic fit: y=(a+((b−a)/(1+((c/x^d)))) where a=asym min, b=asym max, c=IC50 and d=hill coefficient

Chain of full length MPS1 (P33981 whole entry): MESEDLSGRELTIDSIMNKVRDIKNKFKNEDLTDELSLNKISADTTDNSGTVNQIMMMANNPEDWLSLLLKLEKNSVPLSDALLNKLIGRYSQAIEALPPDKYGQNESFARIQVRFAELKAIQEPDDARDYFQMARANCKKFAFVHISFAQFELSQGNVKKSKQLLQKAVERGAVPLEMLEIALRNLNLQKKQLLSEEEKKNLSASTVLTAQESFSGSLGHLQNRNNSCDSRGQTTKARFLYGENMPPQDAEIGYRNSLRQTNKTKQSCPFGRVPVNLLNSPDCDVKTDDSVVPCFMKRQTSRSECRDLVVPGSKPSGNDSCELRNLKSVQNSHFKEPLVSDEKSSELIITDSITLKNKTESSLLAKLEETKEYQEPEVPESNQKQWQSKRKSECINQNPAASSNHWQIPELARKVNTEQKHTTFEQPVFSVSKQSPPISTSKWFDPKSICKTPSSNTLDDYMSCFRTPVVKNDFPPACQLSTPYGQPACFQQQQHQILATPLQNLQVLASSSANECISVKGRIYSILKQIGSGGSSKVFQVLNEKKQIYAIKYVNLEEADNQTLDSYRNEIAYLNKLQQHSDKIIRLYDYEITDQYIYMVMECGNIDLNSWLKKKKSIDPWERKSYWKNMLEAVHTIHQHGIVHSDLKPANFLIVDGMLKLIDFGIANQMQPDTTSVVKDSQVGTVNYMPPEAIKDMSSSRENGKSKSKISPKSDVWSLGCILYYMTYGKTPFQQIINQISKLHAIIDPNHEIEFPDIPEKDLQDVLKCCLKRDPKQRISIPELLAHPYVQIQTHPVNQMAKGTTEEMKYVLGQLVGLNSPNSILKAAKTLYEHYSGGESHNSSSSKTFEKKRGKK

`COc1cc(-c2cn(C)nc2C)ccc1Nc1ncc2ccnc(NCC(C)(C)C)c2n1` [Example 48, N2-(4-(1,3-dimethyl-1H-pyrazol-4-yl)-2-methoxyphenyl)-N8-neopentylpyrido[3,4-d]pyrimidine-2,8-diamine] was tested. Which pIC50 did it give?
Its pIC50 is 8.30.

How did the pIC50 turn out when `COc1cc(-c2cnn(C)c2C)ccc1Nc1ncc2ccnc(NCC(C)(C)C)c2n1` [Example 49, N2-(4-(1,5-dimethyl-1H-pyrazol-4-yl)-2-methoxyphenyl)-N8-neopentylpyrido[3,4-d]pyrimidine-2,8-diamine] was run?
Its pIC50 is 8.30.

`COc1cc(-c2cnn(C)c2)ccc1Nc1ncc2c(C)cnc(NCC(C)(C)C)c2n1` [Example 149, N^2-(2-methoxy-4-(1-methyl-1H-pyrazol-4-yl)phenyl)-5-methyl-N^8-neopentylpyrido[3,4-d]pyrimidine-2,8-diamine] was tested. Which pIC50 did it give?
Its pIC50 is 7.47.

`COc1nc(-c2nnnn2C)ccc1Nc1ncc2ccnc(NCC(C)(C)OC)c2n1` [Example 161, N^8-(2-Methoxy-2-methylpropyl)-N^2-(2-methoxy-6-(1-methyl-1H-tetrazol-5-yl)pyridin-3-yl)pyrido[3,4-d]pyrimidine-2,8-diamine] was tested. Which pIC50 did it give?
Its pIC50 is 7.51.
